Assay results from ChEMBL document CHEMBL1201862, “PubChem BioAssay data set” (2004).
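Compound exposure: 48 hours, 5 concentrations, 96-well plates. GI50 = concentration required for 50% inhibition of growth.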 The source made the active and inactive calls. No stated cut-off is given here; in the data, active = GI50 up to about 1.1 µM and inactive = higher.

What was measured:
Test in all cases: inhibition of tumour cell growth, NCI panel, 48 h
HCT-15 = test system: HCT-15
HCC 2998 = test system: HCC 2998
DU-145 = test system: DU-145
A498 = test system: A498
ACHN = test system: ACHN
SNB-75 = test system: SNB-75
A549 = test system: A549
NCI-H226 = test system: NCI-H226
HOP-92 = test system: HOP-92
MCF7 = test system: MCF7
RXF 393 = test system: RXF 393
SR = test system: SR
LOX IMVI = test system: LOX IMVI
RPMI-8226 = test system: RPMI-8226
CAKI-1 = test system: CAKI-1
SF-295 = test system: SF-295
SK-MEL-2 = test system: SK-MEL-2
NCI/ADR-RES = test system: NCI/ADR-RES
T47D = test system: T47D
Malme-3M = test system: Malme-3M

Row | SMILES | GI50 (HCT-15) [µM] | GI50 (HCC 2998) | GI50 (DU-145) | GI50 (A498) | GI50 (ACHN) | GI50 (SNB-75) | GI50 (A549) | GI50 (NCI-H226) | GI50 (HOP-92) | GI50 (MCF7) | GI50 (RXF 393) | GI50 (SR) | GI50 (LOX IMVI) | GI50 (RPMI-8226) | GI50 (CAKI-1) | GI50 (SF-295) | GI50 (SK-MEL-2) | GI50 (NCI/ADR-RES) | GI50 (T47D) | GI50 (Malme-3M)
1 | O=C1C=CC(O)(C#CCO)C=C1 | 2.69 | 17.5 µM (inactive) | 16 µM (inactive) | 22.4 µM (inactive) | 13.2 µM (inactive) | 21.3 µM (inactive) | 23.8 µM (inactive) | 13.4 µM (inactive) | 2.59 µM (inactive) | 4.33 µM (inactive) | 4.02 µM (inactive) | 2.98 µM (inactive) | 10.5 µM (inactive) | 3.74 µM (inactive) | 4.02 µM (inactive) | 39.3 µM (inactive) | 17.4 µM (inactive) | 6.73 µM (inactive) | 15.2 µM (inactive) | 
2 | CCCCNC(=O)Nc1c(C(N)=O)c2n(c1C(=O)OCC)CCCCC2 | > 100 | > 100 µM (inactive) | > 100 µM (inactive) | > 100 µM (inactive) | > 100 µM (inactive) | > 100 µM (inactive) |  | 3.89 µM (inactive) | > 100 µM (inactive) | > 100 µM (inactive) | > 100 µM (inactive) | 75.9 µM (inactive) | > 100 µM (inactive) | > 100 µM (inactive) | > 100 µM (inactive) | > 100 µM (inactive) | > 100 µM (inactive) | > 100 µM (inactive) | > 100 µM (inactive) | 
3 | CC1=NN(c2nc(N)nc(CSCc3nc(N)nc(N(C)C)n3)n2)C(C)(C)C1 | > 100 | > 100 µM (inactive) | > 100 µM (inactive) | > 100 µM (inactive) | > 100 µM (inactive) | 60.5 µM (inactive) | > 100 µM (inactive) | > 100 µM (inactive) | > 100 µM (inactive) | > 100 µM (inactive) | > 100 µM (inactive) | > 100 µM (inactive) | > 100 µM (inactive) | > 100 µM (inactive) | > 100 µM (inactive) | > 100 µM (inactive) | > 100 µM (inactive) | > 100 µM (inactive) | > 100 µM (inactive) | 
4 | O=C(c1ccco1)C1CC(c2ccc3ccccc3c2O)=NN1 (stereo not given) | 50.6 | > 100 µM (inactive) | > 100 µM (inactive) | > 100 µM (inactive) | > 100 µM (inactive) | > 100 µM (inactive) | 47 µM (inactive) | > 100 µM (inactive) | > 100 µM (inactive) | 46.5 µM (inactive) | > 100 µM (inactive) | 20.2 µM (inactive) |  | 42.9 µM (inactive) | > 100 µM (inactive) | 55.8 µM (inactive) | 71 µM (inactive) | 91.4 µM (inactive) | 92.7 µM (inactive) | > 100 µM (inactive)
5 | Cc1cc2nc3c(N)nn(CCN(C)C)c3nc2cc1C | 36.4 | 51.6 µM (inactive) | 40.8 µM (inactive) | 38.3 µM (inactive) | 28.4 µM (inactive) | 27.4 µM (inactive) | 31.9 µM (inactive) | 11.2 µM (inactive) | 38.5 µM (inactive) | 29.2 µM (inactive) | 30.4 µM (inactive) | > 100 µM (inactive) | 25.9 µM (inactive) | 63.7 µM (inactive) | 39.3 µM (inactive) | 78.7 µM (inactive) | 39 µM (inactive) | 33.3 µM (inactive) | 42.3 µM (inactive) | 34.2 µM (inactive)
6 | CC(C)(C)OC(=O)NCC(=O)N(CCc1ccc(Cl)c(Cl)c1)CCN1CCCC1 | 17.7 | 5.14 µM (inactive) | 16.9 µM (inactive) | 17.8 µM (inactive) | 19.5 µM (inactive) | 17.5 µM (inactive) | 17.7 µM (inactive) | 15 µM (inactive) | 3.78 µM (inactive) | 16.4 µM (inactive) | 14.9 µM (inactive) | 14.5 µM (inactive) | 14.6 µM (inactive) | 5.01 µM (inactive) | 18.4 µM (inactive) | 17.3 µM (inactive) | 16.9 µM (inactive) | 15.3 µM (inactive) | 22.7 µM (inactive) | 19.8 µM (inactive)
7 | COC(=O)c1c(C)[nH]c2c1cc(O)c1nc(C)c(C)nc12 | > 100 | > 100 µM (inactive) | > 100 µM (inactive) | 14.8 µM (inactive) | 35.5 µM (inactive) | 19.5 µM (inactive) | > 100 µM (inactive) | > 100 µM (inactive) | 37.9 µM (inactive) | 50.9 µM (inactive) | 28 µM (inactive) | > 100 µM (inactive) | > 100 µM (inactive) | > 100 µM (inactive) | > 100 µM (inactive) | 23.6 µM (inactive) | 33 µM (inactive) | > 100 µM (inactive) | 47.3 µM (inactive) | > 100 µM (inactive)
8 | Cn1c(O)c(C2=Nc3ccccc3C2=O)c2ccccc21 | > 100 | > 100 µM (inactive) | > 100 µM (inactive) | > 100 µM (inactive) | > 100 µM (inactive) | > 100 µM (inactive) | > 100 µM (inactive) | > 100 µM (inactive) | > 100 µM (inactive) | > 100 µM (inactive) | > 100 µM (inactive) | > 100 µM (inactive) | > 100 µM (inactive) | > 100 µM (inactive) | > 100 µM (inactive) | > 100 µM (inactive) | > 100 µM (inactive) | > 100 µM (inactive) | > 100 µM (inactive) | > 100 µM (inactive)
9 | COc1cccc(-c2cc(=O)c3cc(N4CCCCC4)ccc3[nH]2)c1 | < 0.0167 | 0.0434 µM (active) | 0.0622 µM (active) | 0.0188 µM (active) | < 0.0186 µM (active) | 0.6 µM (active) | < 0.0206 µM (active) | 0.0127 µM (active) | 13.1 µM (inactive) | < 0.01 µM (active) | < 0.01 µM (active) | < 0.01 µM (active) | < 0.0177 µM (active) | < 0.01 µM (active) | < 0.01 µM (active) | 0.0119 µM (active) | 0.521 µM (active) | 0.02 µM (active) | > 100 µM (inactive) | 13.7 µM (inactive)
10 | Cn1c2c(c3ccccc31)CC(=O)N1CCCC(C1)CC21OCCO1 (stereo not given) | > 100 | > 100 µM (inactive) | > 100 µM (inactive) | > 100 µM (inactive) | > 100 µM (inactive) | > 100 µM (inactive) | > 100 µM (inactive) | > 100 µM (inactive) | > 100 µM (inactive) | > 100 µM (inactive) | 13.6 µM (inactive) | > 100 µM (inactive) | > 100 µM (inactive) | > 100 µM (inactive) | > 100 µM (inactive) | > 100 µM (inactive) | > 100 µM (inactive) | > 100 µM (inactive) | > 100 µM (inactive) | > 100 µM (inactive)
11 | O=C1OC2(C(F)(F)F)Oc3ccccc3CN2C12CCCCC2 (stereo not given) | 28.2 | 33.1 µM (inactive) | 32.3 µM (inactive) | 53.8 µM (inactive) | 19.7 µM (inactive) | 16 µM (inactive) | 28.6 µM (inactive) | 27.4 µM (inactive) | 24.9 µM (inactive) | 39.1 µM (inactive) | 20.4 µM (inactive) | 22.8 µM (inactive) | 22.4 µM (inactive) |  | 18.7 µM (inactive) | 21.1 µM (inactive) |  | 31.1 µM (inactive) | 21.8 µM (inactive) | 18 µM (inactive)
12 | CN(C)C(=O)OC1=CC2CCC(C1)N2C (stereo not given) | 48.3 |  | > 100 µM (inactive) | > 100 µM (inactive) | 82 µM (inactive) | > 100 µM (inactive) | 70.8 µM (inactive) | 0.685 µM (active) | > 100 µM (inactive) | 66.1 µM (inactive) | > 100 µM (inactive) | 47 µM (inactive) | 61.4 µM (inactive) | > 100 µM (inactive) | > 100 µM (inactive) | > 100 µM (inactive) | > 100 µM (inactive) | 91.6 µM (inactive) | > 100 µM (inactive) | > 100 µM (inactive)
13 | CCSc1c2cc(OC)ccc2nc2ccc(OC)cc12 | 8.34 | 7.53 µM (inactive) | 18.2 µM (inactive) | 9.4 µM (inactive) | 18.6 µM (inactive) | 6.73 µM (inactive) | 25.6 µM (inactive) | 11.9 µM (inactive) | > 60.8 µM (inactive) | 4.99 µM (inactive) | 11.6 µM (inactive) | 2.76 µM (inactive) | 13.2 µM (inactive) | 4.24 µM (inactive) | 9.27 µM (inactive) | 22.4 µM (inactive) | 18.8 µM (inactive) | 12.1 µM (inactive) | 8.87 µM (inactive) | 13.7 µM (inactive)
14 | O=c1c2cc(-c3ccccc3)sc2nc2n1N=C(c1ccccc1)CS2 | 84.3 | 36.5 µM (inactive) | 94.4 µM (inactive) | 21.4 µM (inactive) | 11.4 µM (inactive) | 19.1 µM (inactive) | 21.4 µM (inactive) | 30.6 µM (inactive) | 12.1 µM (inactive) | 14.6 µM (inactive) | > 10 µM (inactive) | > 100 µM (inactive) | 27.3 µM (inactive) | > 100 µM (inactive) | 13.5 µM (inactive) | 15.5 µM (inactive) |  | 13.4 µM (inactive) | 9.55 µM (inactive) | 33.3 µM (inactive)
15 | COC(=O)C[C@H](COCc1ccccc1)NC(=O)C[C@H](COCc1ccccc1)NC(=O)OC(C)(C)C | 30.7 |  | 22.4 µM (inactive) | 27.1 µM (inactive) | 38.6 µM (inactive) | 25.1 µM (inactive) | 24.2 µM (inactive) | > 100 µM (inactive) | 23.7 µM (inactive) | 19.8 µM (inactive) | 29.6 µM (inactive) | 39.1 µM (inactive) | 53.3 µM (inactive) | 39.5 µM (inactive) | 29.7 µM (inactive) | 34.1 µM (inactive) | 37.2 µM (inactive) | 21.8 µM (inactive) | 33.9 µM (inactive) | 36.6 µM (inactive)
